# Literature values, collected in patent US20110270212A1, “PHARMACOKINETIC CONTROL FOR OPTIMIZED INTERFERON DELIVERY” (MEDTRONIC, INC., priority 2007, published 2011).
# What was measured:
# [1] = subcutaneously
# HCV [2] = conditions: in vivo
# HCV [3] = conditions: oral doses up to 4500 mg
# HCV [4] = conditions: across all dosing arms
# HCV [5] = conditions: ribavirin combined with interferon-α, genotype 1 population
# [6] = test system: Hepatitis C virus replication (replicon model); conditions: via protease inhibition
molecule,measurement,setting,value
interferon-α,dose administered without adverse reactions,[1],up to 300 million IU/m^2
"[N-]=[N+]=N[C@]1(CO)O[C@@H](n2ccc(N)nc2=O)[C@H](O)[C@@H]1O [R1626, 4′-azidocytidine]",response with pegylated interferon/ribavirin,HCV [2],good response
same,tolerability,HCV [3],generally well-tolerated with increasing adverse events at the highest dose
CC(C)C(=O)OC[C@H]1O[C@@H](n2ccc(N)nc2=O)[C@](C)(F)[C@@H]1OC(=O)C(C)C [R71278],antiviral activity,HCV [4],dose-dependent antiviral activity
"NC(=O)c1ncn([C@@H]2O[C@H](CO)[C@@H](O)[C@H]2O)n1 [ribavirin, 1-β-D-ribofuranosyl-1H-1,2,4-triazole-3-carboxamide]",therapeutic effectiveness of the combination,HCV [5],29%
COc1ccc2c(O[C@@H]3C[C@H]4C(=O)N[C@]5(C(=O)NS(=O)(=O)C6CC6)C[C@H]5/C=C\CCCCN(C)C(=O)[C@@H]4C3)cc(-c3nc(C(C)C)cs3)nc2c1C [TMC435350],Hepatitis C virus replication in replicon experiments,[6],reduce the amount of Hepatitis C virus replication
